Experimental data published in patent US10233182B2, “Substituted spirocyclic inhibitors of autotaxin” (X-Rx, Inc., priority 2014, dated 2019).
Structures can show the parent of a compound that is named as a salt.

Target: Autotaxin (Homo sapiens (Human), UniProt Q13822)
Test: Autotaxin LPC Cascade Assay
Assay type: biochemical
Details: Autotaxin 5 nM, LPC 100 μM, choline oxidase/HRP/Ampliflu Red fluorescence read-out, 2% DMSO, RT; read-out: IC50 ATX Activity
In short: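 Choline liberated from LPC by autotaxin during 1 h, after a 10-min RT compound preincubation, was converted through choline oxidase/HRP to a fluorescent Ampliflu Red product.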

| SMILES | IC50 [nM] |
| --- | --- |
| CC(C)[C@@H](NC(=O)c1cc(C(F)(F)F)ccc1F)C(=O)N1CCC2(CC1)C(=O)N(C)C(=O)N2c1ccc(Cl)c(Cl)c1 [Example 183, (R)—N-(1-(1-(3,4-Dichlorophenyl)-3-methyl-2,4-dioxo-1,3,8-triazaspiro[4.5]decan-8-yl)-3-methyl-1-oxobutan-2-yl)-2-fluoro-5-(trifluoromethyl)benzamide] | < 500 |
| Cc1ccc(N2C(=O)N(C)C(=O)C23CCN(C(=O)[C@H](NC(=O)c2cc(C(F)(F)F)ccc2F)C(C)C)CC3)cc1 [Example 184, (R)-2-Fluoro-N-(3-methyl-1-(3-methyl-2,4-dioxo-1-p-tolyl-1,3,8-triazaspiro[4.5]decan-8-yl)-1-oxobutan-2-yl)-5-(trifluoromethyl)benzamide] | < 500 |
| CC(C)[C@@H](NC(=O)c1cc(C(F)(F)F)ccc1F)C(=O)N1CCC2(CC1)C(=O)N(C)C(=O)N2c1ccc2[nH]ccc2c1 [Example 185, (R)—N-(1-(1-(1H-Indol-5-yl)-3-methyl-2,4-dioxo-1,3,8-triazaspiro[4.5]decan-8-yl)-3-methyl-1-oxobutan-2-yl)-2-fluoro-5-(trifluoromethyl)benzamide] | < 500 |
| CC(C)[C@@H](NC(=O)c1cc(C(F)(F)F)ccc1F)C(=O)N1CCC2(CC1)C(=O)N(C)C(=O)N2c1ccc(C(F)(F)F)cc1 [Example 186, (R)-2-Fluoro-N-(3-methy-1-(3-methyl-2,4-dioxo-1-(4-(trifluoromethyl)phenyl)-1,3,8-triazaspiro[4.5]decan-8-yl)-1-oxobutan-2-yl)-5-(trifluoromethyl)benzamide] | < 500 |
| CC(C)[C@@H](NC(=O)c1cc(C(F)(F)F)ccc1F)C(=O)N1CCC2(CC1)C(=O)N(C)C(=O)N2c1cccc(Cl)c1 [Example 187, (R)—N-(1-(1-(3-Chlorophenyl)-3-methyl-2,4-dioxo-1,3,8-triazaspiro[4.5]decan-8-yl)-3-methyl-1-oxobutan-2-yl)-2-fluoro-5-(trifluoromethyl)benzamide] | < 500 |
| CC(C)[C@@H](NC(=O)c1cc(C(F)(F)F)ccc1F)C(=O)N1CCC2(CC1)C(=O)N(C)C(=O)N2c1ccccn1 [Example 188, (R)-2-Fluoro-N-(3-methyl-1-(3-methyl-2,4-dioxo-1-(pyridin-2-yl)-1,3,8-triaza-spiro[4.5]decan-8-yl)-1-oxobutan-2-yl)-5-(trifluoromethyl)benzamide] | 500 to 1000 |
| CC(C)[C@@H](NC(=O)c1cc(C(F)(F)F)ccc1F)C(=O)N1CCC2(CC1)C(=O)N(C)C(=O)N2c1cccnc1 [Example 189, (R)-2-Fluoro-N-(3-methyl-1-(3-methyl-2,4-dioxo-1-(pyridin-3-yl)-1,3,8-triaza-spiro[4.5]decan-8-yl)-1-oxobutan-2-yl)-5-(trifluoromethyl)benzamide] | 500 to 1000 |
| [2H]c1ccc(N2C(=O)N(C)C(=O)C23CCN(C(=O)[C@H](NC(=O)c2cc(C(F)(F)F)ccc2F)C(C)C)CC3)cc1 [Example 190] | < 500 |
| CC(C)[C@@H](NC(=O)c1cc(C(F)(F)F)ccc1F)C(=O)N1CCC2(CC1)C(=O)N(C)C(=O)N2c1ccc2c(c1)OCO2 [Example 191, (R)—N-(1-(1-(Benzo[d][1,3]dioxol-5-yl)-3-methyl-2,4-dioxo-1,3,8-triazaspiro[4.5]decan-8-yl)-3-methyl-1-oxobutan-2-yl)-2-fluoro-5-(trifluoromethyl)benzamide] | < 500 |
| Cc1cccc(C(=O)N[C@@H](C(=O)N2CCC3(CC2)C(=O)N(C)CN3c2cccc(Cl)c2)C(C)C)c1 [Example 192, (R)—N-(1-(1-(3-Chlorophenyl)-3-methyl-4-oxo-1,3,8-triazaspiro[4.5]decan-8-yl)-3-methyl-1-oxobutan-2-yl)-3-methylbenzamide] | < 500 |
| Cc1cccc(C(=O)N[C@@H](C(=O)N2CCC3(CC2)C(=O)N(C)CN3c2ccc(Cl)cc2)C(C)C)c1 [Example 193, (R)—N-(1-(1-(4-Chlorophenyl)-3-methyl-4-oxo-1,3,8-triazaspiro[4.5]decan-8-yl)-3-methyl-1-oxobutan-2-yl)-3-methylbenzamide] | < 500 |
| Cc1cccc(C(=O)N[C@@H](C(=O)N2CCC3(CC2)C(=O)N(C)CN3c2cccc(Br)c2)C(C)C)c1 [Example 194, (R)—N-(1-(1-(3-Bromophenyl)-3-methyl-4-oxo-1,3,8-triazaspiro[4.5]decan-8-yl)-3-methyl-1-oxobutan-2-yl)-3-methylbenzamide] | < 500 |
| Cc1cccc(C(=O)N[C@@H](C(=O)N2CCC3(CC2)C(=O)N(C)CN3c2cccnc2)C(C)C)c1 [Example 195, (R)-3-Methyl-N-(3-methyl-1-(3-methyl-4-oxo-1-(pyridin-3-yl)-1,3,8-triazaspiro[4.5]decan-8-yl)-1-oxobutan-2-yl)benzamide] | ≥ 1000 |
| Cc1cccc(C(=O)N[C@@H](C(=O)N2CCC3(CC2)C(=O)N(C)CN3c2ccccc2Cl)C(C)C)c1 [Example 196, (R)—N-(1-(1-(2-Chlorophenyl)-3-methyl-4-oxo-1,3,8-triazaspiro[4.5]decan-8-yl)-3-methyl-1-oxobutan-2-yl)-3-methylbenzamide] | < 500 |
| COc1ccc(N2CN(C)C(=O)C23CCN(C(=O)[C@H](NC(=O)c2cccc(C)c2)C(C)C)CC3)cc1 [Example 197, (R)—N-(1-(1-(4-Methoxyphenyl)-3-methyl-4-oxo-1,3,8-triazaspiro[4.5]decan-8-yl)-3-methyl-1-oxobutan-2-yl)-3-methylbenzamide] | < 500 |
| COc1cccc(N2CN(C)C(=O)C23CCN(C(=O)[C@H](NC(=O)c2cccc(C)c2)C(C)C)CC3)c1 [Example 198, (R)—N-(1-(1-(3-Methoxyphenyl)-3-methyl-4-oxo-1,3,8-triazaspiro[4.5]decan-8-yl)-3-methyl-1-oxobutan-2-yl)-3-methylbenzamide] | < 500 |
| Cc1cccc(C(=O)N[C@@H](C(=O)N2CCC3(CC2)C(=O)N(C)CN3c2ccc(Br)cc2)C(C)C)c1 [Example 199, (R)—N-(1-(1-(4-Bromophenyl)-3-methyl-4-oxo-1,3,8-triazaspiro[4.5]decan-8-yl)-3-methyl-1-oxobutan-2-yl)-3-methylbenzamide] | < 500 |
| CCc1ccc(F)c(C(=O)N[C@@H](C(=O)N2CCC3(CC2)C(=O)N(C)CN3c2ccc(S(C)(=O)=O)cc2)C(C)C)c1 [Example 200, (R)-5-Ethyl-2-fluoro-N-(3-methyl-1-(3-methyl-1-(4-(methylsulfonyl)phenyl)-4-oxo-1,3,8-triazaspiro[4.5]decan-8-yl)-1-oxobutan-2-yl)benzamide] | < 500 |
| CCc1ccc(F)c(C(=O)N[C@@H](C(=O)N2CCC3(CC2)C(=O)N(C)CN3c2ccc(=O)n(C)c2)C(C)C)c1 [Example 201, (R)-5-Ethyl-2-fluoro-N-(3-methyl-1-(3-methyl-1-(1-methyl-6-oxo-1,6-dihydropyridin-3-yl)-4-oxo-1,3,8-triazaspiro[4.5]decan-8-yl)-1-oxobutan-2-yl)benzamide] | < 500 |
| CCc1ccc(F)c(C(=O)N[C@@H](C(=O)N2CCC3(CC2)C(=O)N(C)CN3c2ccc(OC)cc2)C(C)C)c1 [Example 202, (R)-5-Ethyl-2-fluoro-N-(1-(1-(4-methoxyphenyl)-3-methyl-4-oxo-1,3,8-triazaspiro[4.5]decan-8-yl)-3-methyl-1-oxobutan-2-yl)benzamide] | < 500 |
| CCc1ccc(F)c(C(=O)N[C@@H](C(=O)N2CCC3(CC2)C(=O)N(C)CN3c2ccc3oc(=O)n(C)c3c2)C(C)C)c1 [Example 203, (R)-5-Ethyl-2-fluoro-N-(3-methyl-1-(3-methyl-1-(3-methyl-2-oxo-2,3-dihydrobenzo[d]oxazol-5-yl)-4-oxo-1,3,8-triazaspiro[4.5]decan-8-yl)-1-oxobutan-2-yl)benzamide] | < 500 |
| CC(C)[C@@H](NC(=O)c1cc(C(F)(F)F)ccc1F)C(=O)N1CCC2(CC1)C(=O)N(C)CN2c1ccc(=O)n(C)c1 [Example 204, (R)-2-Fluoro-N-(3-methyl-1-(3-methyl-1-(1-methyl-6-oxo-1,6-dihydropyridin-3-yl)-4-oxo-1,3,8-triazaspiro[4.5]decan-8-yl)-1-oxobutan-2-yl)-5-(trifluoromethyl)benzamide] | < 500 |
| CC(C)[C@@H](NC(=O)c1cc(C(F)(F)F)ccc1F)C(=O)N1CCC2(CC1)C(=O)N(C)CN2c1ccc(S(C)(=O)=O)cc1 [Example 205, (R)-2-Fluoro-N-(3-methyl-1-(3-methyl-1-(4-(methylsulfonyl)phenyl)-4-oxo-1,3,8-triazaspiro[4.5]decan-8-yl)-1-oxobutan-2-yl)-5-(trifluoromethyl)benzamide] | < 500 |
| CC(C)[C@@H](NC(=O)c1cc(C(F)(F)F)ccc1F)C(=O)N1CCC2(CC1)C(=O)N(C)CN2c1ccc2nccn2c1 [Example 206, (R)-2-Fluoro-N-(1-(1-(imidazo[1,2-a]pyridin-6-yl)-3-methyl-4-oxo-1,3,8-triazaspiro[4.5]decan-8-yl)-3-methyl-1-oxobutan-2-yl)-5-(trifluoromethyl)benzamide trifluoroacetic Acid Salt] | < 500 |
| CC(C)[C@@H](NC(=O)c1cc(Cl)cc(C(F)(F)F)c1)C(=O)N1CCC2(CC1)C(=O)N(C)CN2c1ccc(=O)n(C)c1 [Example 207, (R)-3-Chloro-N-(3-methyl-1-(3-methyl-1-(1-methyl-6-oxo-1,6-dihydropyridin-3-yl)-4-oxo-1,3,8-triazaspiro[4.5]decan-8-yl)-1-oxobutan-2-yl)-5-(trifluoromethyl)benzamide] | < 500 |
| CN1CN(c2ccc(=O)n(C)c2)C2(CCN(C(=O)[C@H](NC(=O)c3cc(C(F)(F)F)ccc3F)C3CCCC3)CC2)C1=O [Example 208, (R)—N-(1-Cyclopentyl-2-(3-methyl-1-(1-methyl-6-oxo-1,6-dihydropyridin-3-yl)-4-oxo-1,3,8-triazaspiro[4.5]decan-8-yl)-2-oxoethyl)-2-fluoro-5-(trifluoromethyl)benzamide] | < 500 |
| COc1ccc(N2C(C)N(C)C(=O)C23CCN(C(=O)[C@H](NC(=O)c2cc(C(F)(F)F)ccc2F)C(C)C)CC3)cc1 (stereo partly drawn) [Example 209, 2-Fluoro-N-((2R)-1-(1-(4-methoxyphenyl)-2,3-dimethyl-4-oxo-1,3,8-triazaspiro[4.5]decan-8-yl)-3-methyl-1-oxobutan-2-yl)-5-(trifluoromethyl)benzamide] | < 500 |
